Results: EP0745597A2, “Novel melatonergic indanyl piperazines or homopiperazines” (BRISTOL-MYERS SQUIBB COMPANY, priority 1995, dated 1996)

Each molecule was assayed against T1, human ML1B receptor (Homo sapiens, UniProt P49286) (assay: Measurement of binding to melatonergic receptors (2-[125I]-iodomelatonin, membranes of transfected NIH 3T3 cells)). Settings: 2-[125I]-Iodomelatonin 200 pM, 37 °C for 1 hour, NIH 3T3 cells stably transfected with the human ML1B receptor; read-out: Melatonin Binding.
T1 construct: host or cells: NIH 3T3 cells, stably transfected; membrane homogenates
T1 sequence (P49286 1-362): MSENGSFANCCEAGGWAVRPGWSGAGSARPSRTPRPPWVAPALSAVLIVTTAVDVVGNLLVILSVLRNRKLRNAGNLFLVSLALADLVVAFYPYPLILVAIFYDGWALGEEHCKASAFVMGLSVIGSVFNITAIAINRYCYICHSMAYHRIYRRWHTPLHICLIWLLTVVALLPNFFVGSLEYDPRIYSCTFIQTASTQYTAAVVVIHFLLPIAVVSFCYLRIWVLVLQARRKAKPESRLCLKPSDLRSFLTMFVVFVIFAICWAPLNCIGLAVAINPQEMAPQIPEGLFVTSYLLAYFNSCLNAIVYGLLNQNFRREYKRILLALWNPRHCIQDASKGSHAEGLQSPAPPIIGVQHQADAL
Experimental: The melatonergic binding affinities of various compounds of Formula I were determined by the method of Reppert, S. M., Weaver, D. R., and Ebisawa, R. (Neuron, Volume 13, 1177-1185, 1994). The assays were incubated at 37 °C for 1 hour, and the reaction was terminated by filtration. The filters were washed with wash buffer. […] The reagents, membrane and other techniques used in the melatonergic binding assays are more fully described below: • 1. Reagents: • (a) 50 mM Tris buffer containing 12.5 mM MgCl2, and 2mM EDTA, pH 7.4 at 37 °C. • (b) Wash buffer: 20 mM Tris base containing 2 mM MgCl2. pH 7.4 at room temperature. • (c) Melatonin (10^-5 M final concentration). • (d) 2-[^125I]-Iodomelatonin, 200 pM final concentration Source: NEN • 2. Membrane preparation: NIH 3T3 cells stably transfected with the human ML1B receptor were obtained from S.M. Reppert and maintained. Cells were pelleted when confluent. The supernatant was discarded and the pellets frozen. For preparing membrane homogenates, the pellets are thawed on ice and resuspended in TME buffer, Tris base, MgCl2, EDTA (pH 7.4 at 37 °C ), supplemented with aprotinin, leupeptin, and […]. The cells were then homogenized and centrifuged. The resulting pellet was resuspended with a Dounce homogenizer in TME and frozen. At assay, a small aliquot was thawed on ice and resuspended in TME buffer. […] These compounds are considered active.

SMILES	IC50
COc1ccc2c(c1)C(N1CCN(C(=O)c3ccccc3Cl)CC1)CC2 (single isomer, unassigned; (-)) [(-)-1-(2-Chlorobenzoyl)-4-(6-methoxy-indan-1-yl)piperazine]	100 to 250 nM
COc1ccc2c(c1)C(N1CCN(C(=O)c3ccccc3)CC1)CC2 (single isomer, unassigned; (-)) [(-)-1-(Benzoyl)-4-(6-methoxy-indan-1-yl)piperazine]	100 to 250 nM
COc1ccc2c(c1)C(N1CCN(C(=O)C3(C)CCCCC3)CC1)CC2 (single isomer, unassigned; (-)) [(-)-1-[(1-Methylcyclohexyl)carbonyl]-4-(6-methoxy-indan-1-yl)piperazine]	100 to 250 nM
COc1ccc2c(c1)C(N1CCN(C(=O)c3c[nH]c4ccccc34)CC1)CC2 (single isomer, unassigned; (-)) [(-)-1-[(1H-indol-3-yl)carbonyl]-4-(6-methoxy-indan-1-yl)piperazine]	100 to 250 nM
COc1ccc2c(c1)C(N1CCN(C(=O)c3cc(Br)c(Br)s3)CC1)CC2 (single isomer, unassigned; (-)) [(-)-1-[(4,5-Dibromo-thien-2-yl)carbonyl]-4-(6-methoxy-indan-1-yl)piperazine]	100 to 250 nM
COc1ccc2c(c1)C(N1CCN(C(=O)c3ccc(Cl)s3)CC1)CC2 (single isomer, unassigned; (-)) [(-)-1-[(5-Chloro-thien-2-yl)carbonyl]-4-(6-methoxy-indan-1-yl)piperazine]	100 to 250 nM
CCC(=O)C(=O)N1CCN(C2CCc3ccc(OC)cc32)CC1 (single isomer, unassigned; (-)) [(-)-4-(6-Methoxy-indan-1-yl)-1-(2-oxo-butanoyl)piperazine]	10 to 100 nM
C=CCCC(=O)N1CCN(C2CCc3ccc(OC)cc32)CC1 (single isomer, unassigned; (-)) [(-)-4-(6-Methoxy-indan-1-yl)-1-(4-pentenoyl)piperazine]	100 to 250 nM

More lines, now with the values ahead:

IC50	SMILES
< 10 nM	COc1ccc2c(c1)C(N1CCN(C(=O)c3sccc3Br)CC1)CC2 (single isomer, unassigned; (-)) [(-)1-[(3-Bromothien-2-yl)carbonyl]-4-(6-Methoxy-indan-1-yl)piperazine]
10 to 100 nM	CCC(C)(C)C(=O)N1CCN(C2CCc3ccc(OC)cc32)CC1 (single isomer, unassigned; (-)) [(-)-1-(2,2-Dimethyl-butanoyl)-4-(6-methoxy-indan-1-yl)piperazine]
< 10 nM	COc1ccc2c(c1)C(N1CCN(C(=O)c3ccccc3O)CC1)CC2 (single isomer, unassigned; (-)) [(-)-1-(2-Hydroxybenzoyl)-4-(6-methoxy-indan-1-yl)piperazine]
10 to 100 nM	COc1ccc2c(c1)C(N1CCN(C(=O)CCl)CC1)CC2 (single isomer, unassigned; (-)) [(-)-1-(Chloroacetyl)-4-(6-methoxy-indan-1-yl)piperazine]
10 to 100 nM	COc1ccc2c(c1)C(N1CCN(C(=O)C=C(C)C)CC1)CC2 (single isomer, unassigned; (-)) [(-)-1-[(2,2-Dimethyl-ethenyl)carbonyl]-4-(6-methoxy-indan-1-yl)piperazine]
< 10 nM	COc1ccc2c(c1)C(N1CCN(C(=O)c3sccc3Cl)CC1)CC2 (single isomer, unassigned; (-)) [(-)-1-[(3-Chlorothien-2-yl)carbonyl]-4-(6-methoxy-indan-1-yl)-1-piperazine]
10 to 100 nM	COc1ccc2c(c1)C(N1CCN(C(=O)c3ccoc3)CC1)CC2 (single isomer, unassigned; (-)) [(-)-1-[(3-Furanyl)carbonyl]-4-(6-methoxy-indan-1-yl)piperazine]
10 to 100 nM	COc1ccc2c(c1)C(N1CCN(C(=O)c3ccc(Br)o3)CC1)CC2 (single isomer, unassigned; (-)) [(-)-1-[(5-Bromo-furan-2-yl)carbonyl]-4-(6-methoxy-indan-1-yl)piperazine]
< 10 nM	COc1ccc2c(c1)C(N1CCN(C(=O)CSC)CC1)CC2 (single isomer, unassigned; (-)) [(-)-4-(6-Methoxy-indan-1-yl)-1-(2-methylthioacetyl)piperazine]
